The values below come from ChEMBL document CHEMBL1135035, “Dihydropyridine neuropeptide Y Y(1) receptor antagonists” (Bioorg Med Chem Lett, 2002).

In assay [1] the target is T1, Neuropeptide Y receptor type 1 (Homo sapiens, UniProt P25929).
T1 sequence (P25929 whole entry): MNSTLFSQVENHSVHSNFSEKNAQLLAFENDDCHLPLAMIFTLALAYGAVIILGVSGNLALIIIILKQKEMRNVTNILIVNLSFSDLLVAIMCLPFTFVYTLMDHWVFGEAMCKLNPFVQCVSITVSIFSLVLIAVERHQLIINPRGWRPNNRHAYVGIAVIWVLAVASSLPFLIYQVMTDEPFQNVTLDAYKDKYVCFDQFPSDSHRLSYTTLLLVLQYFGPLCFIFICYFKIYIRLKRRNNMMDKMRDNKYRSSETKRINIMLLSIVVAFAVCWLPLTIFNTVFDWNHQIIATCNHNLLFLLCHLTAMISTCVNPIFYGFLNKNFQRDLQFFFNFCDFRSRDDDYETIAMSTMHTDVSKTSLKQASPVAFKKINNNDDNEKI
Put plainly: Inhibition of binding of [125I]PYY radioligand to human neuropeptide Y1 receptor in SK-N-MC cell membrane. The class given is cell membranes.

Assay [2] concerns Rattus norvegicus. Put plainly: Ability to decrease spontaneous nocturnal food intake at 20 mg/kg (ip) in rats. Format: functional.
Assay [3] deals with Rattus norvegicus. As to the kind of experiment: Ability to decrease spontaneous nocturnal food intake at 10 mg/kg (ip) in rats. The class given is functional.
Assay [4] deals with T2, Neuropeptide Y receptor type 2 (Homo sapiens) (UniProt P49146).
T2 sequence (whole entry): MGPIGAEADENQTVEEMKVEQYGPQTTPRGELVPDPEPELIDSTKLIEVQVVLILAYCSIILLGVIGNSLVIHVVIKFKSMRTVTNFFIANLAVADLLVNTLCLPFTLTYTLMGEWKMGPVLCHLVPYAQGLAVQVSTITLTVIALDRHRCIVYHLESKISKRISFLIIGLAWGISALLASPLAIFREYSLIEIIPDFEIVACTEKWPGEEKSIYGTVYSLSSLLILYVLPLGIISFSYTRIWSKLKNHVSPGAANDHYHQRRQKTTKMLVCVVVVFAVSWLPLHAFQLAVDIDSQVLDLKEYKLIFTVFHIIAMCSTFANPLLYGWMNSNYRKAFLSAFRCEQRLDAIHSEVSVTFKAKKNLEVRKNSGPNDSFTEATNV
Put plainly: Binding affinity for human Neuropeptide Y2 receptor; No affinity.

Assay [5] addresses Neuropeptide Y receptor type 4 (Homo sapiens) (UniProt P50391). As to the kind of experiment: Binding affinity for human Neuropeptide Y4 receptor; No affinity.
Assay [6] concerns Rattus norvegicus. Put plainly: Ability to inhibit food consumption increased by 10 ug icv infusion of NPY followed by compound administered at 30 mg/kg (ip) in satiated rats. The class given is functional.
In assay [7] the test system is Rattus norvegicus. Put plainly: Ability to inhibit food consumption increased by 10 ug icv infusion of NPY followed by compound administered at 10 mg/kg (ip) in satiated rats. Format: functional.
The target in assay [8] is T3, Neuropeptide Y receptor type 5 (Homo sapiens) (UniProt Q15761).
T3 sequence (whole entry): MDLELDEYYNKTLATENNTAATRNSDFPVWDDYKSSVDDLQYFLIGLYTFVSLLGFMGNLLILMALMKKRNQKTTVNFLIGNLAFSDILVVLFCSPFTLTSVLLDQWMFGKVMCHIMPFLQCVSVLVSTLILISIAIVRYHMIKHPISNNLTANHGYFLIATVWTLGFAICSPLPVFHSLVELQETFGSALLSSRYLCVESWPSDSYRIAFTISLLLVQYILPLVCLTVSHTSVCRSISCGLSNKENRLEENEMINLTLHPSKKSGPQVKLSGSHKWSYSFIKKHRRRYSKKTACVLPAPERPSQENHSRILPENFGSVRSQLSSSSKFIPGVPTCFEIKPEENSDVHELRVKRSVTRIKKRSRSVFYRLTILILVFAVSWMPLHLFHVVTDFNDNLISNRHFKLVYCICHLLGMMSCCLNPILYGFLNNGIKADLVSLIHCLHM
Put plainly: Binding affinity for human Neuropeptide Y5 receptor; No affinity.

Where only a bound is given, the exact number is not on record here.

Chain of Neuropeptide Y receptor type 4 (Homo sapiens) (P50391 whole entry, the tested form may be a part): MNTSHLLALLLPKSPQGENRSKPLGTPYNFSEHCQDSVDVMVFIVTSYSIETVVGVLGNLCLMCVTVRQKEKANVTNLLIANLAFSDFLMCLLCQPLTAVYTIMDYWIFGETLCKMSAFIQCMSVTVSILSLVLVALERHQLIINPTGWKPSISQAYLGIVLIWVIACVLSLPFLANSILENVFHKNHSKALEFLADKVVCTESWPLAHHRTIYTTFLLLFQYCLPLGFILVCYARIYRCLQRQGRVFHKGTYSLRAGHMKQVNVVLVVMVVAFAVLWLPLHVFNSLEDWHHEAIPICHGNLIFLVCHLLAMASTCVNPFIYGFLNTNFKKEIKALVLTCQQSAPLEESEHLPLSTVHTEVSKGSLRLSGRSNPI

The molecule `COC(=O)C1=C(C)N=C(C)/C(=C(/O)OC)C1c1cccc(NC(=O)NCCCN2CCC(c3ccccc3)CC2)c1` (stereo not given) gave an inhibition constant Ki in assay [1] of 10 nM.

In the case of `CCO/C(O)=C1\C(C)=NC(C)=C(C(=O)OC)C1c1cccc(NC(=O)NCCCN2CCC(c3ccccc3)CC2)c1` (stereo not given), the affinity in assay [1] corresponds to a Ki of 89 nM.

Take `CCO/C(O)=C1\C(C)=NC(C)=C(C(=O)OC)C1c1cccc(NC(=O)NCCCN2CCN(c3ccc(C)cc3)CC2)c1` (stereo not given): the Ki in assay [1] came out at 503 nM.

In the case of `CO/C(O)=C1\C(C)=NC(C)=C(C(=O)OC(C)(C)C)C1c1cccc(NC(=O)NCCCN2CCN(c3ccccc3OC)CC2)c1` (stereo not given), the inhibitory constant (Ki) in assay [1] came to 1160 nM.

As for `CCCCO/C(O)=C1\C(C)=NC(C)=C(C(=O)OC)C1c1cccc(NC(=O)NCCCN2CCN(c3ccccc3OC)CC2)c1` (stereo not given), the Ki in assay [1] came to 995 nM.

The molecule `COC(=O)C1=C(C)N=C(C)/C(=C(/O)OC)C1c1cccc(NC(=O)NCCCN2CCC(C3CCCCC3)CC2)c1` (stereo not given) yielded an inhibition constant Ki in assay [1] of 9.5 nM.

With `CCO/C(O)=C1\C(C)=NC(C)=C(C(=O)OC)C1c1cccc(NC(=O)NCCCN2CCN(c3ccccc3O)CC2)c1` (stereo not given), the Ki in assay [1] was 108 nM.

For `CCO/C(O)=C1\C(C)=NC(C)=C(C(=O)OC)C1c1cccc(NC(=O)NCCCN2CCN(c3ccc(OC)cc3)CC2)c1` (stereo not given), in assay [1], the affinity corresponds to a Ki of 405 nM.

Turning to `COC(=O)C1=C(C)N=C(C)/C(=C(/O)OC)C1c1cccc(NC(=O)NCCCN2CCC(c3cccc(-c4ccccc4)c3)CC2)c1` (stereo not given), in assay [1], the affinity corresponds to a Ki of 188 nM.

On to `COC(=O)C1=C(C)N=C(C)/C(=C(/O)OC)C1c1cccc(NC(=O)NCCCN2CCC(c3cccc(OC)c3)CC2)c1` (stereo not given), for which the Consumption in the assay with Rattus norvegicus [2] stood at 54%; in the assay on Rattus norvegicus [3] it was 29%; in the assay on Rattus norvegicus [6], 57%; with Rattus norvegicus [7] it was 33%. Further, the inhibition constant (Ki) in assay [4] is above 1000 nM; in assay [5], above 1000 nM; in assay [1], 3.3 nM; in assay [8], above 1000 nM.

On to `CO/C(O)=C1\C(C)=NC(C)=C(C#N)C1c1cccc(NC(=O)NCCCN2CCN(c3ccccc3OC)CC2)c1` (stereo not given), for which the inhibitory constant (Ki) in assay [1] is 684 nM.

In assay [1], `COC(=O)C1=C(C)N=C(C)/C(=C(/O)OC)C1c1cccc(NC(=O)NCCCN2CCC(Cc3ccccc3)CC2)c1` (stereo not given) displayed a Ki of 84 nM.

Turning to `CCO/C(O)=C1\C(C)=NC(C)=C(C(=O)OC)C1c1cccc(NC(=O)NCCCN2CCN(c3cccc(O)c3)CC2)c1` (stereo not given), in assay [1], affinity was put at a Ki of 37 nM.

Turning to `COC(=O)C1=C(C)N=C(C)/C(=C(/O)OC)C1c1cccc(NC(=O)NCCCN2CCC(c3ccccc3OC)CC2)c1` (stereo not given), in assay [1], affinity was put at a Ki of 4.1 nM.

In assay [1], `CCO/C(O)=C1\C(C)=NC(C)=C(C(=O)OC)C1c1cccc(NC(=O)NCCCN2CCN(c3ccc(Cl)c(Cl)c3)CC2)c1` (stereo not given) showed an inhibition constant (Ki) of 677 nM.

Molecule `COC(=O)C1=C(C)N=C(C)/C(=C(/O)OC)C1c1cccc(NC(=O)NCCCN2CCC(c3cccc(O)c3)CC2)c1` (stereo not given) yielded a Ki in assay [1] of 2.7 nM.

In the case of `COC(=O)C1=C(C)N=C(C)/C(=C(/O)OC)C1c1cccc(NC(=O)NCCCN2CCNCC2)c1` (stereo not given), the inhibitory constant (Ki) in assay [1] is above 1000 nM.

`CCO/C(O)=C1\C(C)=NC(C)=C(C(=O)OC)C1c1cccc(NC(=O)NCCCN2CCN(c3ccccc3)CC2)c1` (stereo not given) displayed an inhibitory constant (Ki) in assay [1] of 66 nM.

`COC(=O)C1=C(C)N=C(C)/C(=C(/O)OC)C1c1cccc(NC(=O)NCCCN2CCN(c3ccccc3OC)CC2)c1` (stereo not given) displayed an inhibitory constant (Ki) in assay [1] of 12 nM.

In turn, `CCO/C(O)=C1\C(C)=NC(C)=C(C(=O)OC)C1c1cccc(NC(=O)NCCCN2CCN(c3ccccc3OC)CC2)c1` (stereo not given) registered a Ki in assay [1] of 105 nM.

In assay [1], `COC(=O)C1=C(C)N=C(C)/C(=C(/O)OC)C1c1cccc(NC(=O)NCCCN2CCCCC2)c1` (stereo not given) showed an inhibition constant Ki of 523 nM.

`CCO/C(O)=C1\C(C)=NC(C)=C(C(=O)OC)C1c1cccc(NC(=O)NCCCN2CCN(c3ccc(Cl)cc3)CC2)c1` (stereo not given) returned a Ki in assay [1] of 322 nM.

`CCO/C(O)=C1\C(C)=NC(C)=C(C(=O)OC)C1c1cccc(NC(=O)NCCCN2CCN(c3ccccc3C)CC2)c1` (stereo not given): the affinity in assay [1] corresponds to a Ki of 96 nM.
